# Experimental data published in patent US20210023065A1, “AMPHIPHILIC THIOL COMPOUNDS AND USES THEREOF” (THE REGENTS OF THE UNIVERSITY OF CALIFORNIA, priority 2018, published 2021).
# Assays:
# AKT1 (pS473) [1] = assay: Detection of AKT1 phosphorylation in T24 cells (western blot); format: cell-based, human; conditions: T24 cells (oncogenic HRas mutation), 1.25 μmol/10^7 cells, 1 h
# Protocol: T24 cells were grown to confluency in 6 cm plates. Stock solutions of compounds were prepared in DMSO as before and diluted to the final indicated concentration in 2 mL of OptiMEM media before adding to cells. Cells were incubated at 37° C. for 1 h and then media removed and 1.5 mL of HBSS added to each plate. Cells were detached using a cell scraper, pelleted by centrifugation at 1,000 rcf for 5 min and the pellet processed using MPER™ Mammalian Protein Extraction Reagent (ThermoFisher) with the addition of Halt Protease Inhibitor Cocktail (ThermoFisher) and 1 mM sodium orthovanadate. Samples were resolved by electrophoresis using 4-20% SDS-polyacrylamide gels (Bio-Rad) under denaturing and reducing conditions. Proteins were then electrotransferred to a PVDF membrane (Bio-Rad). The membrane was blocked with 3% BSA and then subjected to immunoblot analysis using AKT/MAPK Signaling Pathway Antibody Cocktail (ab151279) (Abcam) and secondary goat anti-rabbit IgG-HRP (sc-2030) (Santa Cruz Biotechnology). Chemiluminescent detection was performed by using SuperSignal West Pico PLUS chemiluminescent substrate (ThermoFisher) according to the manufacturer's instructions.
# Assays were performed in 3 biological replicates. Western blots were analyzed using ImageJl. The intensity of the protein band in each condition was normalized to the intensity of the corresponding loading control (Rab11). […]
# EGFP-HRas = molecular target: T1, EGFP-HRas (Homo sapiens, UniProt P01112); assay: Live-cell imaging of EGFP-HRas localization in HeLa cells; format: cell-based
# T1 construct: host or cells: HeLa
# Protocol: Imaging was performed on an Axio Observer Z1 inverted microscope (Carl Zeiss Microscopy Gmb, Germany) with Yokogawa CSU-X1 spinning disk confocal unit using a 63×, 1.4 NA oil immersion or 20×, 0.8 NA objective to an ORCA-Flash4.0 V2 Digital CMOS camera (Hamamatsu, Japan). For live cell imaging, an incubation chamber with temperature and CO2 controllers (World Precision Instruments) was utilized. Fluorophores were excited with s diode laser (488 nm; 30 mW). Images were acquired using Zen Blue software (Carl Zeiss) and processed using Image J.^1
# HeLa cells were plated at 40,000 cells/well in an 8-well Lab-Tek chamber slide (ThermoFisher) and allowed to adhere overnight. Cells were transfected with mEGFP-HRas or mEGFP-KRas4b using Lipofectamine 2000 (ThermoFisher) according to the manufacturer's protocol. 50 mM stocks of compounds 1 and 2 were prepared by dissolving the solid compound in DMSO containing 100 mM tris(2-S 3 carboxyethyl)phosphine hydrochloride (TCEP) as a preservative. From these stocks, a solution of 200 μM [1 or 2] (with 400 μM TCEP), or 400 μM TCEP was prepared in OptiMEM media. Before imaging, cells were exchanged into OptiMEM media. The diluted solutions were added to the indicated final concentration within individual wells of the chamber slide and cells imaged while maintaining 37° C., 5% CO2 in the incubation chamber. Images were acquired in 6 different locations across a minimum of 2 independent experiments. […] An unpaired t test was performed to determine the significance of the means before and after treatment.
# AKT1 (pS473) [2] = assay: Detection of AKT1 phosphorylation in HeLa cells (western blot); format: cell-based; conditions: 1.25 μmol/10^7 cells, 20 min, then EGF 5 min
# Protocol: HeLa cells were grown to confluency in 6 cm plates and then serum starved overnight in OptiMEM. Stock solutions of compounds were prepared in DMSO as before and diluted to the final indicated concentration in 2 mL of OptiMEM media before adding to cells. Cells were incubated at 37° C. for 20 min and then stimulated with […] EGF (ThermoFisher) for 5 min. Media was then removed and cells washed once with HBSS. 1.5 mL of HBSS was then added to each plate. Cells were detached using a cell scraper, pelleted by centrifugation at 1,000 rcf for 5 min and the pellet processed using MPER™ Mammalian Protein Extraction Reagent (ThermoFisher) with the addition of Halt Protease Inhibitor Cocktail (ThermoFisher) and 1 mM sodium orthovanadate. Samples were resolved by electrophoresis using 4-20% SDS-polyacrylamide gels (Bio-Rad) under denaturing and reducing conditions. Proteins were then electrotransferred to a PVDF membrane (Bio-Rad). The membrane was blocked with 3% BSA and then subjected to immunoblot analysis using AKT/MAPK Signaling Pathway Antibody Cocktail (ab151279) (Abcam) and secondary goat anti-rabbit IgG-HRP (sc-2030) (Santa Cruz Biotechnology). […]
# Assays were performed in 3 biological replicates. Western blots were analyzed using ImageJl. […]
# INCL lymphoblasts = format: cell-based, human
# Protocol: INCL lymphoblasts were plated at 100,000 cells/well in 80 μL of OptiMEM in a 96 well plate. Stock organic solutions were prepared as before and then diluted to 5× stock solutions in OptiMEM. 20 μL of the OptiMEM stocks was then added to the appropriate wells to achieve the indicated final concentration of the compound in 100 μL of cell suspension. After a 24 h incubation, 10 μL of WST-1 reagent (Sigma-Aldrich) was added to each well and cells incubated for 1 h at 37° C., 5% CO2. Absorbance measurements were taken using a Satire II plate reader (Tecan) at 440 nm using 690 nm as a reference. The background absorbance of the WST-1 reagent in media was subtracted and cell viability was reported as a percentage of the viability of the non-treated control cells. All conditions were tested in 4 replicate wells and values reported as means±SD.
# T1 sequence (P01112 1-186 limits assumed): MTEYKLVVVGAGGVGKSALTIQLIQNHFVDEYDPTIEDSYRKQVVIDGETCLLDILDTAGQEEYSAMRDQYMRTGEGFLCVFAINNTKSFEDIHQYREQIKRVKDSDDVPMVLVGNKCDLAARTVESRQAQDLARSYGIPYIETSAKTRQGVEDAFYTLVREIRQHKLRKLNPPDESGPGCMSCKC
compound,measurement,setting,value
"CCCCCCCCNC(=O)[C@@H](N)CS [compound 1, H2N-L-Cys-Oct]",AKT1 phosphorylation,AKT1 (pS473) [1],near complete abrogation
same,"change in plasma membrane protein localization, statistical analysis of several hundred cells","EGFP-HRas; EGFP-HRas transfected HeLa cells, before vs after treatment",significant change in plasma membrane protein localization
same,EGFP-HRas localization at the plasma membrane (fluorescence),"EGFP-HRas; HeLa cells, 1.25 μmol/10^7 cells, 20 min",EGFP-HRas localization at the plasma membrane decreased
same,AKT1 phosphorylation after EGF stimulation,AKT1 (pS473) [2],significant decrease
same,doses that did not decrease cell viability compared to the nontreated control,INCL lymphoblasts,up to 0.08 μmol/10^7 cells
